Literature values, collected in patent publication US12029811B2, “Formulation and method for the treatment of androgenic alopecia” (CENTRO INTERNACIONAL DE COSMIATRÍA, S.A.P.I. DE C.V., priority 2018, dated 2024).

Experiments:
patients = conditions: oral, 5 mg tablets; impotence, erection failure, decreased libido, gynecomastia
alopecia = conditions: topical 5% solution (male) or 2% (female alopecia)

Row | SMILES | Side effects (in words) (patients) | Individuals responding to the treatment (alopecia)
1 | CC(C)(C)NC(=O)[C@H]1CC[C@H]2[C@@H]3CC[C@H]4NC(=O)C=C[C@]4(C)[C@H]3CC[C@]12C [Finasteride, N-(1,1-dimethylethyl)-3-oxo-4-aza 5a-androst-1-en-17β-carboxamide] | side effects were significant | 
2 | Nc1cc(N2CCCCC2)nc(N)[n+]1[O-] [Minoxidil, 2,6-diamino-4-(piperidin-1-yl) pyrimidine 1-oxide] |  | ≤ 40%
